# Experimental data: patent US11759462B2, “Spirocyclic compounds as tryptophan hydroxylase inhibitors” (priority 2013, dated 2023)
# Target: T1, Recombinant human TPH1 (MBP tagged) (Homo sapiens, UniProt P17752)
# T1 construct: cloning full length human TPH1 cDNA in to a bacterial pMAL-c5E expression vector; made in house; host or cells: E. coli BL21 (DE3)
# T1 sequence (P17752 1-444): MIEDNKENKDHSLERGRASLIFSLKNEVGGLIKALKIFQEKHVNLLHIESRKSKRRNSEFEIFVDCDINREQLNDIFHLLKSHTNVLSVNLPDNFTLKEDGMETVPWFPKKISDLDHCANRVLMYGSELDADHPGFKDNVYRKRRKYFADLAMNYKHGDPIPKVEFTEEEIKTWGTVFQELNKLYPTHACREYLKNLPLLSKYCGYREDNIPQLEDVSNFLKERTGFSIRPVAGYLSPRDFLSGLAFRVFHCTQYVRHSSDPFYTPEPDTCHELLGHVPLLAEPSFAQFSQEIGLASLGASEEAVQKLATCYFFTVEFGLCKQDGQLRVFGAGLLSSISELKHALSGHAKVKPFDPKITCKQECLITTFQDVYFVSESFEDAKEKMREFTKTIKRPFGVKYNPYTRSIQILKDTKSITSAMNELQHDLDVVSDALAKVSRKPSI
# Assay: TPH1 in vitro inhibition assay (kinetic fluorescence)
# Type: biochemical
# Conditions: TPH1 Range (TPH1 inhibition IC50)
# Method in brief: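 Final mix: 15 nM MBP-TPH1, 30 μM Trp, 36 μM 6-methyltetrahydropterin, 25 μM ferrous ammonium sulfate, 50 mM MES pH 7.1, 1% DMSO, room temperature.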
row,Compound,IC50
1,"CSc1ccc2cc(-c3ccc([C@@H](Oc4cc(N5CCC6(CC5)CN[C@H](C(=O)O)C6)nc(N)n4)C(F)(F)F)cc3)ccc2n1 [Example 55ai, (S)-8-(2-amino-6-((R)-2,2,2-trifluoro-1-(4-(2-(methylthio)quinolin-6-yl)phenyl)ethoxy)pyrimidin-4-yl)-2,8-diazaspiro[4.5]decane-3-carboxylic acid]",< 50 nM

# Same assay, conditions: read-out: TPH1 Range (TPH1 inhibition IC50)
row,Compound,IC50
1,"Cc1cc(C)cc(-c2cc(Cl)ccc2[C@@H](Oc2cc(N3CCC4(CC3)CN[C@H](C(=O)O)C4)nc(N)n2)C(F)(F)F)c1 [Example 34ba, (S)-8-(2-amino-6-((R)-1-(5-chloro-3′,5′-dimethyl-[1,1′-biphenyl]-2-yl)-2,2,2-trifluoroethoxy)pyrimidin-4-yl)-2,8-diazaspiro[4.5]decane-3-carboxylic acid]",< 50 nM
2,"Cc1ccn(-c2ccc(Br)cc2[C@@H](Oc2cc(N3CCC4(CC3)CN[C@H](C(=O)O)C4)nc(N)n2)C(F)(F)F)n1 [Example 10n, (S)-8-(2-amino-6-((R)-1-(5-bromo-2-(3-methyl-1H-pyrazol-1-yl)phenyl)-2,2,2-trifluoroethoxy)pyrimidin-4-yl)-2,8-diazaspiro[4.5]decane-3-carboxylic acid]",< 50 nM
3,"Nc1nc(O[C@H](c2ccc(Cl)cc2-n2ccc(C3CC3)n2)C(F)(F)F)cc(N2CCC3(CC2)CN[C@H](C(=O)O)C3)n1 [Example 10r, (S)-8-(2-amino-6-((R)-1-(4-chloro-2-(3-cyclopropyl-1H-pyrazol-1-yl)phenyl)-2,2,2-trifluoroethoxy)pyrimidin-4-yl)-2,8-diazaspiro[4.5]decane-3-carboxylic acid]",< 50 nM
4,"Nc1nc(O[C@H](c2ccc(-c3ccc4[nH]c(=O)oc4c3)cc2)C(F)(F)F)cc(N2CCC3(CC2)CN[C@H](C(=O)O)C3)n1 [Example 55ab, (S)-8-(2-amino-6-((R)-2,2,2-trifluoro-1-(4-(2-oxo-2,3-dihydrobenzo[d]oxazol-6-yl)phenyl)ethoxy)pyrimidin-4-yl)-2,8-diazaspiro[4.5]decane-3-carboxylic acid]",50 to 300 nM
5,"Cc1cc(C)c(-c2ccc([C@@H](Oc3cc(N4CCC5(CC4)CN[C@H](C(=O)O)C5)nc(C)n3)C(F)(F)F)c(-n3ccc(C)n3)c2)c(C)c1 [Example 29n, (S)-8-(2-methyl-6-((R)-2,2,2-trifluoro-1-(2′,4′,6′-trimethyl-3-(3-methyl-1H-pyrazol-1-yl)-[1,1′-biphenyl]-4-yl)ethoxy)pyrimidin-4-yl)-2,8-diazaspiro[4.5]decane-3-carboxylic acid]",50 to 300 nM
6,"Cc1cc(-c2ccc([C@@H](Oc3cc(N4CCC5(CC4)CN[C@H](C(=O)O)C5)nc(N)n3)C(F)(F)F)c(-n3ccc(C)n3)c2)cc(C(C)(C)C)c1 [Example 1bj, (S)-8-(2-amino-6-((R)-1-(3′-(tert-butyl)-5′-methyl-3-(3-methyl-1H-pyrazol-1-yl)-[1,1′-biphenyl]-4-yl)-2,2,2-trifluoroethoxy)pyrimidin-4-yl)-2,8-diazaspiro[4.5]decane-3-carboxylic acid]",50 to 300 nM
7,"CCCc1ccc(-c2ccc([C@@H](Oc3cc(N4CCC5(CC4)CN[C@H](C(=O)O)C5)nc(N)n3)C(F)(F)F)cc2)cc1 [Example 55bs, (S)-8-(2-amino-6-((R)-2,2,2-trifluoro-1-(4′-propyl-[1,1′-biphenyl]-4-yl)ethoxy)pyrimidin-4-yl)-2,8-diazaspiro[4.5]decane-3-carboxylic acid]",300 to 3000 nM
8,"Cc1ccn(-c2cc(Br)ccc2[C@@H](Oc2cc(N3CCC4(CC3)CN[C@H](C(=O)O)C4)nc(C)n2)C(F)(F)F)n1 [Example 27, (S)-8-(6-((R)-1-(4-Bromo-2-(3-methyl-1H-pyrazol-1-yl)phenyl)-2,2,2-trifluoroethoxy)-2-methylpyrimidin-4-yl)-2,8-diazaspiro[4.5]decane-3-carboxylic acid]",50 to 300 nM
9,"CC(C)Oc1ccc(-c2ccc([C@@H](Oc3cc(N4CCC5(CC4)CN[C@H](C(=O)O)C5)nc(N)n3)C(F)(F)F)c(N3CCNCC3)c2)cc1 [Example 36e, (S)-8-(2-amino-6-((R)-2,2,2-trifluoro-1-(4′-isopropoxy-3-(piperazin-1-yl)-[1,1′-biphenyl]-4-yl)ethoxy)pyrimidin-4-yl)-2,8-diazaspiro[4.5]decane-3-carboxylic acid]",300 to 3000 nM
10,"Nc1nc(O[C@H](c2ccc(Cl)cc2C2=CCCCC2)C(F)(F)F)cc(N2CCC3(CC2)CN[C@H](C(=O)O)C3)n1 [Example 34by, (S)-8-(2-amino-6-((R)-1-(5-chloro-2′,3′,4′,5′-tetrahydro-[1,1′-biphenyl]-2-yl)-2,2,2-trifluoroethoxy)pyrimidin-4-yl)-2,8-diazaspiro[4.5]decane-3-carboxylic acid]",50 to 300 nM
11,"Nc1nc(O[C@H](c2ccc(-c3ccc(OC(F)(F)F)cc3)cc2)C(F)(F)F)cc(N2CCC3(CC2)CN[C@H](C(=O)O)C3)n1 [Example 55cm, (S)-8-(2-amino-6-((R)-2,2,2-trifluoro-1-(4′-(trifluoromethoxy)-[1,1′-biphenyl]-4-yl)ethoxy)pyrimidin-4-yl)-2,8-diazaspiro[4.5]decane-3-carboxylic acid]",300 to 3000 nM
12,"CCOC(=O)c1ccc(-c2ccc(-n3ccc(C)n3)c([C@@H](Oc3cc(N4CCC5(CC4)CN[C@H](C(=O)O)C5)nc(N)n3)C(F)(F)F)c2)cc1 [Example 21, (S)-8-(2-amino-6-((R)-1-(4′-(ethoxycarbonyl)-4-(3-methyl-1H-pyrazol-1-yl)-[1,1′-biphenyl]-3-yl)-2,2,2-trifluoroethoxy)pyrimidin-4-yl)-2,8-diazaspiro[4.5]decane-3-carboxylic acid]",< 50 nM
13,"Nc1nc(O[C@H](c2ccc(Cl)cc2-c2ccc(F)c(C(F)(F)F)c2)C(F)(F)F)cc(N2CCC3(CC2)CN[C@H](C(=O)O)C3)n1 [Example 34bk, (S)-8-(2-amino-6-((R)-1-(5-chloro-4′-fluoro-3′-(trifluoromethyl)-[1,1′-biphenyl]-2-yl)-2,2,2-trifluoroethoxy)pyrimidin-4-yl)-2,8-diazaspiro[4.5]decane-3-carboxylic acid]",50 to 300 nM
14,"Nc1nc(O[C@H](c2ccc(Cl)cc2-c2cccc(C(=O)N3CCNCC3)c2)C(F)(F)F)cc(N2CCC3(CC2)CN[C@H](C(=O)O)C3)n1 [Example 34cq, (S)-8-(2-amino-6-((R)-1-(5-chloro-3′-(piperazine-1-carbonyl)-[1,1′-biphenyl]-2-yl)-2,2,2-trifluoroethoxy)pyrimidin-4-yl)-2,8-diazaspiro[4.5]decane-3-carboxylic acid]",< 50 nM
15,"Nc1nc(O[C@H](c2ccc(Cl)cc2-c2ccccn2)C(F)(F)F)cc(N2CCC3(CC2)CN[C@H](C(=O)O)C3)n1 [Example 34cs, (S)-8-(2-amino-6-((R)-1-(4-chloro-2-(pyridin-2-yl)phenyl)-2,2,2-trifluoroethoxy)pyrimidin-4-yl)-2,8-diazaspiro[4.5]decane-3-carboxylic acid]",50 to 300 nM
16,"Nc1nc(O[C@H](c2ccc(-c3ccc(C(F)(F)F)cc3)cc2)C(F)(F)F)cc(N2CCC3(CC2)CN[C@H](C(=O)O)C3)n1 [Example 55cd, (S)-8-(2-amino-6-((R)-2,2,2-trifluoro-1-(4′-(trifluoromethyl)-[1,1′-biphenyl]-4-yl)ethoxy)pyrimidin-4-yl)-2,8-diazaspiro[4.5]decane-3-carboxylic acid]",300 to 3000 nM
17,"(S)-8-(2-amino-6-((R)-1-(3,4-dihydroquinazolin-6-yl)-2,2,2-trifluoroethoxy)pyrimidin-4-yl)-2,8-diazaspiro[4.5]decane-3-carboxylic acid [Example 57]",50 to 300 nM
18,"Nc1nc(O[C@H](c2ccc3c(c2)CNCN3)C(F)(F)F)cc(N2CCC3(CC2)CN[C@H](C(=O)O)C3)n1 [Example 58, (S)-8-(2-amino-6-((R)-2,2,2-trifluoro-1-(1,2,3,4-tetrahydroquinazolin-6-yl)ethoxy)pyrimidin-4-yl)-2,8-diazaspiro[4.5]decane-3-carboxylic acid]",50 to 300 nM
19,"Cc1ccn(-c2cc(-c3ccc(F)c(C)c3)ccc2[C@@H](Oc2cc(N3CCC4(CC3)CN[C@H](C(=O)O)C4)nc(N)n2)C(F)(F)F)n1 [Example 1ba, (S)-8-(2-amino-6-((R)-2,2,2-trifluoro-1-(4′-fluoro-3′-methyl-3-(3-methyl-1H-pyrazol-1-yl)-[1,1′-biphenyl]-4-yl)ethoxy)pyrimidin-4-yl)-2,8-diazaspiro[4.5]decane-3-carboxylic acid]",< 50 nM
20,"Nc1nc(O[C@H](c2ccc(-c3ccc4cnsc4c3)cc2)C(F)(F)F)cc(N2CCC3(CC2)CN[C@H](C(=O)O)C3)n1 [Example 55f, (S)-8-(2-amino-6-((R)-1-(4-(benzo[d]isothiazol-6-yl)phenyl)-2,2,2-trifluoroethoxy)pyrimidin-4-yl)-2,8-diazaspiro[4.5]decane-3-carboxylic acid]",50 to 300 nM
21,"Nc1nc(O[C@H](c2ccc(-c3ccc4c(c3)NCCN4)cc2)C(F)(F)F)cc(N2CCC3(CC2)CN[C@H](C(=O)O)C3)n1 [Example 56, (S)-8-(2-amino-6-((R)-2,2,2-trifluoro-1-(4-(1,2,3,4-tetrahydroquinoxalin-6-yl)phenyl)ethoxy)pyrimidin-4-yl)-2,8-diazaspiro[4.5]decane-3-carboxylic acid]",50 to 300 nM
